Article PMC3454376, “Salidroside Improves Behavioral and Histological Outcomes and Reduces Apoptosis via PI3K/Akt Signaling after Experimental Traumatic Brain Injury” (PLoS ONE, 2012)

Tested on: mice subjected to controlled cortical impact injury
Assay: Contusion volume, cresyl violet staining
Format: in vivo
Details: day 28; for contusion volume: vehicle 13.5±4.0
Description: All animal procedures were approved by the Animal Research Committee at Cheng Hsin General Hospital (Animal permit number […] 101-08), and all procedures complied with the Guide for the Care and Use of Laboratory Animals published by the US National Institutes of Health (NIH Publication No. 85-23, revised 1996). Animals were housed under a 12-h light/dark cycle and at constant temperature (21-25°C) and humidity (45-50%). They were allowed free access to pellet chow and water. TBI in mice was induced by a CCI injury model as previously described. Briefly, 8-week-old male C57BL/6 mice (weighing 22-25 g) were anesthetized through the use of intraperitoneal injection of sodium pentobarbital (65 mg/kg; Rhone Merieux, Harlow, UK) and placed in a stereotaxic frame. A 5 mm craniotomy was performed over the right parietal cortex, centered on the coronal suture and 0.1 mm lateral to the sagittal suture, and injury to dura was avoided. Injury was induced using a pneumatic piston with a rounded metal tip (2.5 mm diameter) that was angled 22.5° to the vertical so that the tip was perpendicular with the brain surface at the center of the craniotomy. The impact, with a velocity of […] and a deformation depth of 2 mm below the dura, was applied. The bone flap was immediately replaced and sealed, and the scalp was sutured. Body temperature was monitored throughout the surgery by a rectal probe; temperature was maintained at 37.0±0.5°C using a heated pad. Mice were placed in a heated cage to maintain body temperature, while recovering from anesthesia. Sham-operated mice underwent the same procedure as injured mice, but without CCI. Three sets of experiments were performed. The first set was to investigate the protective effects of salidroside. All animals were randomized into 1 of 3 groups (sham injury, CCI + vehicle, CCI + SALD 20). […] To determine the optimal dose of salidroside, a pilot study was performed using 2 different doses (20 and 50 mg/kg) administered 10 min after injury, and neurological deficits and tissue damage were evaluated as the main outcomes. […]

OC[C@H]1O[C@@H](OCCc2ccc(O)cc2)[C@H](O)[C@@H](O)[C@@H]1O [SALD, salidroside]
contusion volume as % of the vehicle group (20 mg/kg ip 10 min after CCI): 73.8% | contusion volume (20 mg/kg ip 10 min after CCI, P<0.05): 9.9±1.1 mm^3 | contusion volume (50 mg/kg ip 10 min after CCI, P>0.05): 11.7±3.2 mm^3
